Assay results published in publication PMC3105188 (The Journal of steroid biochemistry and molecular biology, 2011).
Residue numbers refer to the chain shown, from its start. “Also recorded” adds a separate entry of the source. Like-named read-outs stand apart in the source and are kept apart here.

Experiments:
hVDR mutant H305F/H397Y [1] = molecular target: T1, hVDR mutant H305F/H397Y (Homo sapiens, UniProt P11473, H305F/H397Y); format: cell-based
T1 sequence (P11473 127-423 H305F/H397Y limits assumed): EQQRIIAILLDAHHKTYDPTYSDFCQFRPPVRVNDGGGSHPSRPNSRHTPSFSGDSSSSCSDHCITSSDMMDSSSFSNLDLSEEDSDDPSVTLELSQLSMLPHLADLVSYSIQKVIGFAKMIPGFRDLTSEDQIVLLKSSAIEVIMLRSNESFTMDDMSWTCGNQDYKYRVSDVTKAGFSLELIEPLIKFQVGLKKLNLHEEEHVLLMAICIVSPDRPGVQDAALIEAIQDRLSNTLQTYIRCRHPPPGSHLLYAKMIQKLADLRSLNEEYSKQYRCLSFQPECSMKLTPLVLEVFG

hVDR mutant H305Y [2] = molecular target: T2, hVDR mutant H305Y (Homo sapiens, UniProt P11473, H305Y); format: cell-based; details: HEK293T
T2 sequence (P11473 127-423 H305Y limits assumed): T1 sequence (P11473 127-423 H305F/H397Y limits assumed) with F179Y, Y271H

wild-type hVDR [3] = molecular target: T3, wild-type hVDR (Homo sapiens, UniProt P11473); format: cell-based; details: HEK293T
T3 sequence (P11473 127-423 limits assumed): T1 sequence (P11473 127-423 H305F/H397Y limits assumed) with F179H, Y271H

wild-type hVDR [4] = molecular target: T4, wild-type hVDR (Homo sapiens, UniProt P11473); format: cell-based
T4 sequence (P11473 1-427): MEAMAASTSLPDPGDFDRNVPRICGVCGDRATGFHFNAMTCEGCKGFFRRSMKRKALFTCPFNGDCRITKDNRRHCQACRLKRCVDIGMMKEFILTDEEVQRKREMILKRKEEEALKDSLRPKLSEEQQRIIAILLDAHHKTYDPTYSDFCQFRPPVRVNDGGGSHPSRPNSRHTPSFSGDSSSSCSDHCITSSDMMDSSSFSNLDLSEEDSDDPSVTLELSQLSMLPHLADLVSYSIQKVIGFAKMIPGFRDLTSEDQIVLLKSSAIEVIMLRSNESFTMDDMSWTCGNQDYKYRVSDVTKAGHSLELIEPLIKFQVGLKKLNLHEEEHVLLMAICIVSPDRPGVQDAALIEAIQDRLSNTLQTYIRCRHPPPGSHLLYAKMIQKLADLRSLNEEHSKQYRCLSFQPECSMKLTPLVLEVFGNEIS

hVDR mutant H305F [5] = molecular target: T5, hVDR mutant H305F (Homo sapiens, UniProt P11473, H305F); format: cell-based; details: HEK293T
T5 sequence (P11473 127-423 H305F limits assumed): T1 sequence (P11473 127-423 H305F/H397Y limits assumed) with Y271H

hVDR mutant H305Y [6] = molecular target: hVDR mutant H305Y (Homo sapiens, UniProt P11473, H305Y); assay: Chemical complementation, yeast PJ69-4A liquid quantitation growth assay; format: cell-based
Target sequence in this assay (P11473 127-423 H305Y limits assumed): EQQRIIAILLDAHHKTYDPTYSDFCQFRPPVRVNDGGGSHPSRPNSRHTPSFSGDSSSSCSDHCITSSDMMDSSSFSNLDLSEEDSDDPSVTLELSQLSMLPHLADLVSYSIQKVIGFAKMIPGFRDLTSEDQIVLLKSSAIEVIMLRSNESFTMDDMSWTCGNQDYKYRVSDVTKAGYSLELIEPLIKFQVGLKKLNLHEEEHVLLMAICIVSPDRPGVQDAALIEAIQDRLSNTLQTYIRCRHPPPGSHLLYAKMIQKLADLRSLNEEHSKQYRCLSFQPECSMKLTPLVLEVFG
Target sequence in this assay (Q9Y6Q9 whole entry partner): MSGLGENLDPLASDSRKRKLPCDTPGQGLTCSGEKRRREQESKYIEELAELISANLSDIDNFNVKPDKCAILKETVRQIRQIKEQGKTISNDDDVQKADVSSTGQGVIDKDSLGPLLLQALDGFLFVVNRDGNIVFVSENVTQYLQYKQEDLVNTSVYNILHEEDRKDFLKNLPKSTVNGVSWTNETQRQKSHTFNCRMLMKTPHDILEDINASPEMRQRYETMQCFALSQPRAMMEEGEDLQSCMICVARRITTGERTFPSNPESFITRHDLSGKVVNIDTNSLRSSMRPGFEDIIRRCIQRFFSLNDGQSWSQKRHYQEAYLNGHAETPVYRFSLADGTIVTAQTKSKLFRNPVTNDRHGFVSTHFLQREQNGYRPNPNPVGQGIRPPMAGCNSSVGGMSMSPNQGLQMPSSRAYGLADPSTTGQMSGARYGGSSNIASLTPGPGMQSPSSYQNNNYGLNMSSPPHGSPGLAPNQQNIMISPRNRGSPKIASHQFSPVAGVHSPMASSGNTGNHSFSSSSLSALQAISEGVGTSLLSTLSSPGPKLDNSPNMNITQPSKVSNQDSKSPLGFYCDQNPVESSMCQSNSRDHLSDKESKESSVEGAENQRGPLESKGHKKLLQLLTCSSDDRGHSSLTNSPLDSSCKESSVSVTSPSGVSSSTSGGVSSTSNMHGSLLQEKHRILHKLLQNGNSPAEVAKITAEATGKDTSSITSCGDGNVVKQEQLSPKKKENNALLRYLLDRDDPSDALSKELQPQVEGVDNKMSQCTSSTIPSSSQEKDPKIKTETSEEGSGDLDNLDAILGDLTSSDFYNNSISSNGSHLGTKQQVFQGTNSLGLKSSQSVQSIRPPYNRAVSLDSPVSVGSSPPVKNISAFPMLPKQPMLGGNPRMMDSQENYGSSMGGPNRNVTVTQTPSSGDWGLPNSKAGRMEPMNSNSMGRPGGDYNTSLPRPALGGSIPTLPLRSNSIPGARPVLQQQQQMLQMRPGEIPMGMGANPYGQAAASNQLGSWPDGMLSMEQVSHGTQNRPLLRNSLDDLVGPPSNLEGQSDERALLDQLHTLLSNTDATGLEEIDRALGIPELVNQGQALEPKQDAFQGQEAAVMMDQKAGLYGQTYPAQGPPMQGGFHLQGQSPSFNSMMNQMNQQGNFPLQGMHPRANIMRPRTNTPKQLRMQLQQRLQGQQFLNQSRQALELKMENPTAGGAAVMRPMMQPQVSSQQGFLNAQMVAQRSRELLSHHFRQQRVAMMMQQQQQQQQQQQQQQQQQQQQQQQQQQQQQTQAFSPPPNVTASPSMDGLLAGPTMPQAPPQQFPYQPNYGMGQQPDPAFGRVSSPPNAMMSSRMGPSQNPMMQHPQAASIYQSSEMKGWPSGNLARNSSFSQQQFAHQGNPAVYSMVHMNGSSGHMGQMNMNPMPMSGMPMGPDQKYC

hVDR mutant H305F [7] = molecular target: hVDR mutant H305F (Homo sapiens, UniProt P11473, H305F); assay: as above; format: cell-based
Target sequence in this assay (P11473 127-423 H305F limits assumed): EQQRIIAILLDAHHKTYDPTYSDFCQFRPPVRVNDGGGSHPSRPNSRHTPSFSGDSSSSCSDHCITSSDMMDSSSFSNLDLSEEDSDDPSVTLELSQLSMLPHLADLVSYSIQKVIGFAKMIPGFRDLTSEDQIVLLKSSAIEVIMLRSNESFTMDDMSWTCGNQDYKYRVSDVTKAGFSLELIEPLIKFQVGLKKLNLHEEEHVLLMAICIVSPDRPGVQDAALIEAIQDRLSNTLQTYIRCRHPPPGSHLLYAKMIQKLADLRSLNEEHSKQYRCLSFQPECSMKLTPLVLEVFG
Target sequence in this assay (Q9Y6Q9 whole entry partner): as the sequence (Q9Y6Q9 whole entry partner) above

hVDR mutant H305F/H397Y [8] = molecular target: hVDR mutant H305F/H397Y (Homo sapiens, UniProt P11473, H305F/H397Y); details: adenine selective media (-ALW)
Target sequence in this assay (Q9Y6Q9 whole entry partner, one chain of several): as the sequence (Q9Y6Q9 whole entry partner) above

hVDR H305F = details: antagonist on wild-type hVDR; cited from earlier work
[9] = histidine selective media (data not shown)

ligand concentration at which growth is observed (hVDR mutant H305Y [6]; adenine selective media (-ALW)) [µM] | ligand concentration at which growth is observed (hVDR mutant H305Y [6]; [9]) [µM] | ligand concentration at which activation is displayed (hVDR mutant H305F/H397Y [1]; HEK293T) [µM] | ligand concentration at which activation is displayed (wild-type hVDR [3]) [µM] | ligand-activated growth (in words) (wild-type hVDR [4]; adenine selective media (-ALW)) | ligand concentration at which growth is observed (wild-type hVDR [4]; histidine selective media (SC-HLW + 0.1 mM 3AT), OD 630) [µM] | ligand concentration at which growth is observed (hVDR mutant H305F [7]; adenine selective media (-ALW)) [µM] | ligand concentration at which growth is observed (hVDR mutant H305F [7]; [9]) [µM] | ligand concentration at which growth/activation is observed (hVDR mutant H305F/H397Y [8]) [µM] | Compound | lowest ligand concentration giving activation (hVDR mutant H305F/H397Y [1]; mammalian cell assays) [nM] | ligand concentration at which activation is displayed (hVDR mutant H305Y [2]) [µM] | activation of receptor (in words) (wild-type hVDR [3]) | ligand-activated growth (in words) (wild-type hVDR [4]; Figure 2B, any ligand concentration) | ligand concentration at which activation is displayed (hVDR mutant H305F [5]) [µM] | functional character with the H305F mutation (in words) (hVDR H305F)
 |  |  |  |  |  |  |  |  | C=C1CC[C@H](O)C/C1=C/C=C1\CCC[C@]2(C)[C@@H]([C@H](C)CCCC(C)C)CC[C@@H]12 [Cholecalciferol, cholecalciferol] | 100 | 1 | does not activate; also recorded: no activation | No ligand activated growth; also recorded: not observed | 1 | 
1 | 0.1 | 1 | 100 | no growth | 10 | 1 | 0.1 | 1 | C[C@H](CCC(=O)O)[C@H]1CC[C@H]2[C@@H]3CC[C@@H]4C[C@H](O)CC[C@]4(C)[C@H]3CC[C@]12C [Lithocholic Acid, lithocholic acid] |  | 1 |  |  |  | 
 |  |  |  |  |  |  |  |  | C=C1C[C@H](C[C@@H](C)[C@H]2CC[C@H]3/C(=C/C=C4/C[C@@H](O)C[C@H](O)C4=C)CCC[C@]23C)OC1=O [MK, (23S)-25-dehydro-1alpha(OH)-vitamin D3-26,23-lactone] |  |  |  |  |  | superagonist
